This is an account of results in patent publication US8722720B2, “Imidazole derivatives as IDO inhibitors” (NewLink Genetics Corporation, priority 2010, dated 2014).

pIC50: −log10 of the molar value. Counter-ions that a name gives are not always drawn.

For one assay, the target named is T1, purified human IDO protein (Homo sapiens, UniProt P14902).
T1 construct: 2 extra amino acids (linker from the BglII cloning site of pQE70); made in house; host or cells: E. coli M15(pREP4) with plasmid pQE70-hIDO
T1 sequence (P14902 whole entry P110S/E119G): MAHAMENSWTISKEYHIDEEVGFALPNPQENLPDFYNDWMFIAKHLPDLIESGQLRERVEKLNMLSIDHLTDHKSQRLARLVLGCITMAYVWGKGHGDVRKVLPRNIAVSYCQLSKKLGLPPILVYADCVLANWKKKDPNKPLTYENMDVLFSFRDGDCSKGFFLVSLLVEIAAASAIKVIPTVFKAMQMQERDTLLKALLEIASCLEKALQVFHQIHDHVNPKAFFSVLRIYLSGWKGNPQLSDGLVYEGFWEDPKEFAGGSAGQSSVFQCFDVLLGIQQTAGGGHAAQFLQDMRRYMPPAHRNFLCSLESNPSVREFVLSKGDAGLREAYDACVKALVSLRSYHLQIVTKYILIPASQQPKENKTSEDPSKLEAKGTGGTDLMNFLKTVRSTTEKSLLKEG
Briefly: Enzymatic IDO assay (kynurenine production, absorbance at 480 nm). The format is biochemical. To be noted: hIDO IC50, recombinant human IDO; values reported in ranges. The procedure:
The inhibitors were initially diluted in DMSO at 100 mM and were diluted in potassium phosphate 50 mM, added to the reaction mixture at final concentrations raging from 1 mM to 5 nM and preincubated with the enzyme for 5 min at 25° C. The reaction was started by addition of L-tryptophan to 200 μM and incubated 15 min at 37° C. The reaction was stopped by addition of 0.5 vol of 30% trichloroacetic acid and incubated 30 min at 60° C. to hydrolyze N-formylkynurenine to kynurenine. The reaction was centrifuged at 3400 g for 5 min to remove precipitated protein and the supernatant was reacted with 2% (w/v) of p-dimethylaminobenzaldehyde in acetic acid. The reaction was incubated 10 min at 25° C. and read at 480 nm in a spectrophotometer. […] Nonlinear regressions and determination of the IC50 values were performed using the GraphPad Prism 4 software.
With `CN(C)C(=O)Oc1ccc(Br)cc1-c1c[nH]cn1` [compound 1035, 4-bromo-2-(1H-imidazol-4-yl)phenyl dimethylcarbamate], the pIC50 was < 4.00.

For the molecule `CN(C)C(=O)Oc1ccc(Cl)cc1-c1c[nH]cn1` [compound 1076, 4-chloro-2-(1H-imidazol-4-yl)phenyl dimethylcarbamate], the pIC50 was < 4.00.

In the case of `Oc1c(Cl)cc(Cl)c(OCCC2CCCCC2)c1-c1cnc[nH]1` [compound 1086, 4,6-dichloro-3-(2-cyclohexylethoxy)-2-(1H-imidazol-5-yl)phenol], the pIC50 is < 4.00.

As to `CN(C(=O)Oc1ccc(Cl)cc1-c1c[nH]cn1)c1ccccc1` [compound 1088, 4-chloro-2-(1H-imidazol-4-yl)phenyl methyl(phenyl)carbamate], the pIC50 was < 4.00.

Regarding `CN1CCN(C(=O)Oc2ccc(Cl)cc2-c2c[nH]cn2)CC1` [compound 1112, 4-chloro-2-(1H-imidazol-4-yl)phenyl 4-methylpiperazine-1-carboxylate], the pIC50 was 4.00 to 5.00.

The assay is the same for the next values; noted with them: recombinant human IDO; values reported in ranges; read-out: hIDO IC50.
With `C=C(COc1ccccc1-c1c[nH]cn1)c1coc2ccccc12` [compound 1030, 4-(2-(2-(benzofuran-3-yl)allyloxy)phenyl)-1H-imidazole], the pIC50 is 5.00 to 6.00.

`CC(COc1ccccc1-c1c[nH]cn1)c1coc2ccccc12` (stereo not shown) [compound 1031, 4-(2-(2-(benzofuran-3-yl)propoxy)phenyl)-1H-imidazole]: the pIC50 was 5.00 to 6.00.

For the molecule `O=C(O)c1ccc(COc2ccccc2-c2c[nH]cn2)cc1` [compound 1032, lithium 4-((2-(1H-imidazol-4-yl)phenoxy)methyl) benzoate], the pIC50 is 4.00 to 5.00.

Regarding `CCOC(=O)Oc1ccc(Br)cc1-c1cn(C(=O)OCC)cn1` [compound 1036, ethyl 4-(5-bromo-2-(ethoxycarbonyloxy)phenyl)-1H-imidazole-1-carboxylate], the pIC50 was 4.00 to 5.00.

As to `Fc1ccc(-c2cnc[nH]2)cc1Cl` [compound 1037, 5-(3-chloro-4-fluorophenyl)-1H-imidazole], the pIC50 was 4.00 to 5.00.

In the case of `Oc1ccc(Cl)cc1-c1cnc2cnccn12` [compound 1038, 4-chloro-2-(imidazo[1,2-a]pyrazin-3-yl)phenol], the pIC50 was < 4.00.

In the case of `FC(F)(F)c1ccccc1CCOc1ccccc1-c1c[nH]cn1` [compound 1040, 4-(2-(2-(trifluoromethyl)phenethoxy)phenyl)-1H-imidazole], the negative logarithm of the IC50 (pIC50) is 5.00 to 6.00.

On to `CC(Cc1ccccc1Cl)Oc1ccccc1-c1c[nH]cn1` (stereo not shown) [compound 1043, 4-(2-(1-(2-chlorophenyl)propan-2-yloxy)phen-yl)-1H-imidazole], for which the pIC50 is 5.00 to 6.00.

For the molecule `CC(CC1CCCCC1)Oc1ccccc1-c1c[nH]cn1` (stereo not shown) [compound 1044, 4-(2-(1-cyclohexylpropan-2-yloxy)phenyl)-1H-imidazole], the pIC50 is 4.00 to 5.00.

Consider `CC(Oc1ccccc1-c1c[nH]cn1)c1ccccc1` (stereo not shown) [compound 1045, 4-(2-(1-phenylethoxy)phenyl)-1H-imidazole], for which the pIC50 was 4.00 to 5.00.

With `CC(C)(C)OC(=O)Nc1ccc(CCOc2ccccc2-c2c[nH]cn2)cc1` [compound 1046, tert-butyl 4-(2-(2-(1H-imidazol-4-yl)phenoxy)ethyl)phenylcarbamate], the pIC50 is 5.00 to 6.00.

Consider `CCOC(=O)n1cnc(-c2ccccc2)c1` [compound 1047, ethyl 4-phenyl-1H-imidazole-1-carboxylate], for which the pIC50 was < 4.00.

Consider `Oc1c(-c2cnc[nH]2)[nH]c2ccccc12` [compound 1048, 2-(1H-imidazol-5-yl)-1H-indol-3-ol], for which the pIC50 is < 4.00.

Regarding `NC(CCc1ccccc1-c1c[nH]cn1)C(=O)O` (stereo not shown) [compound 1050, lithium 4-(2-(1H-imidazol-4-yl)phenyl)-2-amino-butanoate], the pIC50 was < 4.00.

As for `COc1cc(F)c(Cl)cc1-c1cnc[nH]1` [compound 1051, 5-(5-chloro-4-fluoro-2-methoxyphenyl)-1H-imidazole], the pIC50 is < 4.00.

On to `CC(COc1ccccc1-c1c[nH]cn1)C1CCCCC1` (stereo not shown) [compound 1052, 4-(2-(2-cyclohexylpropoxy)phenyl)-1H-imidazole hydrochloride], for which the pIC50 was 5.00 to 6.00.

In the case of `Clc1ccc(OCc2ccccc2)c(-c2cncn2C2CCCCC2)c1` [compound 1060, 5-(2-(benzyloxy)-5-chlorophenyl)-1-cyclo-hexyl-1H-imidazole], the pIC50 is < 4.00.

Regarding `Nc1ccc(CCOc2ccccc2-c2c[nH]cn2)cc1` [compound 1078, 4-(2-(2-(1H-imidazol-4-yl)phenoxy)ethyl) aniline], the pIC50 is 5.00 to 6.00.

As for `O=C(O)CCSc1nc(-c2ccccc2)c(-c2ccccc2)[nH]1` [compound 1079, 3-(4,5-diphenyl-1H-imidazol-2-ylthio)propanoic acid], the pIC50 is < 4.00.

As to `CC(C)N(C(=O)Oc1ccc(Cl)cc1-c1c[nH]cn1)C(C)C` [compound 1085, 4-chloro-2-(1H-imidazol-4-yl)phenyl diisopropylcarbamate], the pIC50 was < 4.00.

With `O=C(Oc1ccc(Cl)cc1-c1c[nH]cn1)N1CCCC1` [compound 1087, 4-chloro-2-(1H-imidazol-4-yl)phenyl pyrrolidine-1-carboxylate], the pIC50 is < 4.00.

As to `CC(C)(C)C(=O)Nc1ccc(CCOc2ccccc2-c2c[nH]cn2)cc1` [compound 1101, N-(4-(2-(2-(1H-imidazol-4-yl)phenoxy)ethyl)phenyl)pivalamide], the pIC50 is 5.00 to 6.00.

As to `O=C(Cc1ccccc1)Nc1ccc(CCOc2ccccc2-c2cnc[nH]2)cc1` [compound 1102, N-(4-(2-(2-(1H-imidazol-4-yl)phenoxy)ethyl)phenyl)-2-phenylacetamide], the pIC50 was > 6.00.

On to `CC(C)(C)CC(=O)Nc1ccc(CCOc2ccccc2-c2c[nH]cn2)cc1` [compound 1103, N-(4-(2-(2-(1H-imidazol-4-yl)phenoxy)ethyl)phenyl)-3,3-dimethylbutanamide], for which the pIC50 is 5.00 to 6.00.

On to `CCOC(=O)Nc1ccc(CCOc2ccccc2-c2c[nH]cn2)cc1` [compound 1104, ethyl 4-(2-(2-(1H-imidazol-4-yl)phenoxy)ethyl)phenylcarbamate], for which the pIC50 is 5.00 to 6.00.

Regarding `Oc1ccc(OCc2ccccc2)cc1-c1cnc[nH]1` [compound 1105, 4-(benzyloxy)-2-(1H-imidazol-5-yl)phenol], the pIC50 is 4.00 to 5.00.

`Fc1ccccc1CCOc1ccccc1-c1cnc[nH]1` [compound 1106, 5-(2-(2-fluorophenethoxy)phenyl)-1H-imidazole]: the pIC50 is 5.00 to 6.00.

For the molecule `CC(C)(C)CCOc1ccc(O)c(-c2cnc[nH]2)c1` [compound 1107, 4-(3,3-dimethylbutoxy)-2-(1H-imidazol-5-yl) phenol], the pIC50 was 4.00 to 5.00.

In the case of `c1ccc(-c2cncn2-c2ccccc2)cc1` [compound 1108, 1,5-diphenyl-1H-imidazole], the pIC50 is 4.00 to 5.00.

Turning to `CC(COc1ccccc1-c1c[nH]cn1)c1ccccc1Cl` (stereo not shown) [compound 1109, 4-(2-(2-(2-chlorophenyl)propoxy)phenyl)-1H-imidazole], the pIC50 is 4.00 to 5.00.

`CC(C)(C)CCOc1ccc(O)cc1-c1c[nH]cn1` [compound 1110, 4-(3,3-dimethylbutoxy)-3-(1H-imidazol-4-yl) phenol]: the pIC50 was 4.00 to 5.00.

In the case of `Oc1c(Cl)cc(Cl)c(OCCc2ccccc2Cl)c1-c1cnc[nH]1` [compound 1111, 4,6-dichloro-3-(2-chlorophenethoxy)-2-(1H-imidazol-5-yl)phenol], the pIC50 was 4.00 to 5.00.

For `c1ccc2c(c1)NCn1cncc1-2` [compound 1114, 5,6-dihydroimidazo[1,5-c]quinazoline], the pIC50 is < 4.00.

Take `Nn1cncc1-c1ccccc1` [compound 1115, 5-phenyl-1H-imidazol-1-amine]: the pIC50 is < 4.00.

Consider `Ic1ccccc1-c1cnc[nH]1` [compound 1119, 5-(2-iodophenyl)-1H-imidazole], for which the pIC50 is 4.00 to 5.00.

In the case of `Oc1cc(F)ccc1-c1cnc[nH]1` [compound 1120, 5-fluoro-2-(1H-imidazol-5-yl)phenol], the pIC50 was 4.00 to 5.00.

As for `CC(=O)Nc1ccccc1-c1c[nH]cn1` [compound 1121, N-(2-(1H-imidazol-4-yl)phenyl)acetamide], the pIC50 is < 4.00.

Consider `Oc1ccc(Cl)cc1-c1cncn1-c1cccnc1` [compound 1122, 4-chloro-2-(1-(pyridin-3-yl)-1H-imidazol-5-yl)phenol], for which the pIC50 is 4.00 to 5.00.

For `Oc1c(-c2cnc[nH]2)ccc(F)c1Cl` [compound 1129, 2-chloro-3-fluoro-6-(1H-imidazol-5-yl)phenol], the pIC50 is 4.00 to 5.00.

On to `Oc1cc(F)c(Cl)cc1-c1cnc[nH]1` [compound 1130, 4-chloro-5-fluoro-2-(1H-imidazol-5-yl)phenol], for which the pIC50 was 5.00 to 6.00.

Consider `C=CCn1cncc1-c1ccccc1` [compound 1131, 1-allyl-5-phenyl-1H-imidazole], for which the pIC50 was < 4.00.

In the case of `O=C(Nc1ccc(CCOc2ccccc2-c2c[nH]cn2)cc1)OCc1ccccc1` [compound 1136, benzyl (4-(2-(2-(1H-imidazol-4-yl)phenoxy)ethyl)phenyl)carbamate], the pIC50 was 5.00 to 6.00.

For `CC1Cn2cncc2-c2ccccc21` (stereo not shown) [compound 1137, 6-methyl-5,6-dihydroimidazo[5,1-a]isoquino-line], the pIC50 is < 4.00.

For `Oc1ccccc1-c1cnco1` [compound 1139, 2-(oxazol-5-yl)phenol], the pIC50 was 4.00 to 5.00.

Usually pIC50 stands for the IC50 on a negative log10 scale, so that one unit is a factor of ten.
